{
  "source": "patent US5157020A",
  "about": "“Synthetic senescent cell antigen” (Research Corporation Tech., Inc., priority 1990, dated 1992)",
  "molecular_target": "T1, band 3 (Homo sapiens, UniProt P02730)",
  "T1 construct": "endogenous in cells; host or cells: stored red blood cells (middle-aged cells stored in Alsever's for 5 wks at 4 C)",
  "T1 sequence (P02730 1-911)": "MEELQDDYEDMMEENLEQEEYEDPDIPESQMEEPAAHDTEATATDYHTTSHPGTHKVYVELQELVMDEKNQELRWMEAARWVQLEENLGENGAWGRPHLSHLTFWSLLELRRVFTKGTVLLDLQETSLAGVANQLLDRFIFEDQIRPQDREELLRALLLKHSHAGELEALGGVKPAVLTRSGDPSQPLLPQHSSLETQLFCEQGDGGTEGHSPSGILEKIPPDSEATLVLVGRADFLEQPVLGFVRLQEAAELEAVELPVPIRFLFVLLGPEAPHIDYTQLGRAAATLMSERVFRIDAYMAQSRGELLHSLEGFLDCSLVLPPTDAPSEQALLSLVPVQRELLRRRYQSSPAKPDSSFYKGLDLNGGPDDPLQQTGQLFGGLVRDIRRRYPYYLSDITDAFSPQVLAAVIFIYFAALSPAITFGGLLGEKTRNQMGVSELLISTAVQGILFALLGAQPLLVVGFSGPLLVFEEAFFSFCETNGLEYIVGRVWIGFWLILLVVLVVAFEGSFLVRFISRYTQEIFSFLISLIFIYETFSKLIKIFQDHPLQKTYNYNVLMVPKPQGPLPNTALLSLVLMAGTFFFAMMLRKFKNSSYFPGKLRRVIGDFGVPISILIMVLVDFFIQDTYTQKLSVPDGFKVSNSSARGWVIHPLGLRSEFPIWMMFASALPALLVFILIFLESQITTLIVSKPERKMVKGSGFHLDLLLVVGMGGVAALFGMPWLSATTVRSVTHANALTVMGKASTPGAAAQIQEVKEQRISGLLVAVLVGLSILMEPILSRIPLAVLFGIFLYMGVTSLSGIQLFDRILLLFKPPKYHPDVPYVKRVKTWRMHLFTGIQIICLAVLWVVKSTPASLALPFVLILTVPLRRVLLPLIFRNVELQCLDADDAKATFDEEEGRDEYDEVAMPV",
  "experiment": "DIDS treatment of stored cells prior to incubation with senescent cell IgG",
  "type": "cell-based",
  "details": "stored cells incubated with 25 uM DIDS for 90 min at room temperature before senescent cell IgG",
  "procedure": "Since DNP and DIDS modification of ANION 1 and COOH abolished inhibition of senescent cell IgG binding, we reasoned that DIDS binding to band 3 lysines in whole cells should interfere with senescent cell IgG binding. Stored cells were incubated with 25 uM DIDS for 90 min at room temperature prior to incubation with senescent cell IgG. […] Another possibility is that DIDS binding perturbs the configuration of the molecule so that the binding site is altered. However, since our studies indicate that the actual antigenic determinants reside on ANION 1 and COOH (Example 1), it is unlikely that a distant perturbation of the antigenic site by DIDS binding is responsible. It is more likely that a DIDS reactive lysine lies in or near enough to the antigenic site to cause steric hindrance.",
  "data": [
    {"smiles": "O=S(=O)(O)c1cc(N=C=S)ccc1CCc1ccc(N=C=S)cc1S(=O)(=O)O", "note": "[DIDS, diisothiocyano dihydrostilbene disulphonate]", "values": [
      {"measurement": "inhibition of senescent cell IgG binding", "value": "54±3", "unit": "%"}
    ]}
  ]
}
